According to US6316182A, “Detection of reverse transcriptase by DNA hybridization assay” (priority 1992, dated 2001):
Several values for one entry are separate records, joined by “and”; a condition that tells them apart may be missing. Equal entries are not always repeated. Where two headings read alike, the source gives them in different places.

Assays:
[1] = system: HIV-1 reverse transcriptase with valine for leucine at codon 74; details: valine for the wild-type leucine at codon 74; cited from earlier work
AMV RT = experiment: Heteropolymeric RNA template RT hybridization assay, inhibition of AMV RT (Example 3); type: biochemical, avian myeloblastosis virus; details: for Absorbance (450 nm-650 nm): no-drug absorbance 3.760
Experimental: (§1) 1. 10 μL of 1 N KOH was added to each tube and incubated at 37° C. for 15 minutes to hydrolyze the RNA.
(§2) 2. 10 μL of 1 N KH2 PO4 was added to each tube to neutralize the pH and […] of solution from each tube was transferred to a well of a streptavidin-coated microplate.
(§3) 3. 50 μL of the following solution was added to each well:
(§4) 4. The wells were covered with an adhesive plate cover and incubated at 37° C. for 2 hours.
(§5) 6. 100 μL of tetramethylbenzidine (TMB, SOMA) was added to each well and incubated for 1 hour at room temperature.
(§6) 7. 100 μL of TMB Stop Solution (SOMA) was added to each well and the absorbance (450 nm-650 nm) of the wells was read with a plate reader.
Same as described in Example 1 above.
AMV RT (Du Pont) was used as a model to illustrate use of the method of the present invention for detecting and/or quantitating the ability of a compound to inhibit RT activity. AMV RT was added to give tubes containing 40 μL of the following solution:
These reaction conditions were similar to those of Example 1 above except with respect to the addition of the inhibitor, the lower dNTP concentration (0.001 mM instead of 0.5 mM) and the increased amount of RT (200 mU instead of 5 mU). Reducing the dNTPs decreases the signal in the assay, but increasing the RT increases the signal. The reduced dNTP concentration helps to make the assay more sensitive to inhibitors which act competitively with the dNTPs and, thus, less inhibitor is needed to achieve the effect. By adding more inhibitor, the same results can be obtained at higher dNTP concentrations.
The tubes were incubated at 37° C. for 1 hour to allow the synthesis of cDNA.
Same as for Example 1 described above.

[2] = system: HIV-1 reverse transcriptase with codon 215 and/or codon 219 substitution; details: phenylalanine or tyrosine for threonine at codon 215, and/or glutamine for lysine at codon 219; cited from earlier work
[3] = molecular target: T1, codon 74 (ddI-resistant) mutant RT (Human immunodeficiency virus type 1 group M subtype B, UniProt P04585, L661V); experiment: Heteropolymeric RNA template RT hybridization assay, inhibition of codon 74 mutant RT (Example 2); type: biochemical, HIV-1
T1 construct: Wild-type and mutant RT genes of these clones were subcloned into a bacterial expression vector (pKRT2); made in house; host or cells: E. coli
Experimental: (§7) A template RNA was synthesized by in vitro transcription from linearized pSP72 plasmid DNA by performing the following steps:
(§8) 2. In vitro transcription with T7 RNA polymerase was performed by 2 hour incubation at 37° C. of a solution containing 50 μg/mL of the linearized DNA, 400 units/mL T7 RNA polymerase, 40 mM Tris-HCl buffer, pH 8.0, 6 mM MgCl2, 2 mM spermidine, 10 mM NaCl, 10 mM DTT, 0.5 mM rATP, 0.5 mM rGTP, 0.5 mM rCTP and 0.5 mM rUTP.
(§9) The following DNA oligonucleotide was synthesized on a DNA synthesizer employing standard methods:
(§10) The following probe oligonucleotides were synthesized on a DNA synthesizer and conjugated with biotin or horseradish peroxidase (HRP) employing standard methods.
as §1, §2, §3, §4, §5, §6
(§11) In this example, RT was obtained from E. coli expression systems as described below and was added to each tube in sufficient amount to give a significant signal (about 1-2 absorbance units) in the absence of drug. The same amount of RT was added to each tube. Both a wild-type and a codon 74 (ddI-resistant) mutant RT were tested. Molecular clones were constructed by site-directed mutagenesis to contain a mutation at codon 74, 215, and/or 219. Mutants at codon 74 are resistant to ddI. Wild-type and mutant RT genes of these clones were subcloned into a bacterial expression vector (pKRT2). Bacterial lysates containing recombinant expressed RT, both wild-type and mutant, were made as previously described (D'Aquila, R. T. and Summers, W. C. (1989) JAIDS 2:579-587). The IC50 was determined by computerized estimation (Systat version 5.1) of the median-effect equation: fractional reduction=1/[1+(IC50/drug concentration)^m ]. Each IC50 is the mean of 5-10 experiments. Results of a one-tailed Mann-Whitney U test for the difference between mean wild-type and mutant IC50s: p<0.005.
(§12) An amount of ddATP (the active form of ddI) varying from 0.0005 to 0.250 mM was added to various tubes containing 40 μL of the following solution:
(§13) In this example, the dNTP concentrations were the same as described in Example 1 above.
(§14) These tubes were incubated at 37° C. for 1 hour to allow the synthesis of cDNA. […]

[4] = system: triple mutant RT (74/215/219); experiment: Heteropolymeric RNA template RT hybridization assay, inhibition of triple mutant RT 74/215/219 (Example 2); type: biochemical, HIV-1; details: 74/215/219 mutant RT; single determinations; read-out: IC50 (multiple determinations)
Experimental: as §11, §12, §13, §14

wild-type RT = molecular target: T2, wild-type RT (Human immunodeficiency virus type 1 group M subtype B, UniProt P04585); experiment: Heteropolymeric RNA template RT hybridization assay, inhibition of wild-type RT (Example 2); type: biochemical, HIV-1
T2 construct: Wild-type and mutant RT genes of these clones were subcloned into a bacterial expression vector (pKRT2); made in house; host or cells: E. coli
Experimental: as §7, §8, §9, §10, §1, §2, §3, §4, §5, §6, §11, §12, §13, §14

Compound: O=c1[nH]cnc2c1ncn2[C@H]1CC[C@@H](CO)O1 [ddI]
- resistance of the RT to the drug [1]: leads to ddI resistance

Compound: O=C(O)P(=O)(O)O [fosgarnet]
- inhibition detected and/or quantitated (AMV RT; similar experiment, non-nucleoside RT inhibitor): could also be detected and/or quantitated

Compound: Cc1cn([C@H]2C[C@H](N=[N+]=[N-])[C@@H](CO)O2)c(=O)[nH]c1=O [AZT, zidovudine]
- resistance of the RT to the drug [2]: leads to resistance to AZT

Compound: Nc1ncnc2c1ncn2[C@H]1CC[C@@H](COP(=O)(O)OP(=O)(O)OP(=O)(O)O)O1 [ddATP]
- Absorbance (450 nm-650 nm) (AMV RT; ddATP 0.0001 mM): 3.593
- Absorbance (450 nm-650 nm) (AMV RT; ddATP 0.00025 mM): 2.984
- Absorbance (450 nm-650 nm) (AMV RT; ddATP 0.0005 mM): 2.079
- Absorbance (450 nm-650 nm) (AMV RT; ddATP 0.0010 mM): 1.365
- Absorbance (450 nm-650 nm) (AMV RT; ddATP 0.0025 mM): 0.350
- Absorbance (450 nm-650 nm) (AMV RT; ddATP 0.0050 mM): 0.197
- Absorbance (450 nm-650 nm) (AMV RT; ddATP 0.0100 mM): 0.224
- IC50 ([3]; 74 mutant RT, single determinations, read-out: IC50 (multiple determinations)): 13.2 µM and 16.6 µM and 13.4 µM
- IC50 ([3]; Mutant 74 RT, 5 cases, 0.5 mM dNTPs, read-out: Maximum (IC50)): 29.4 µM
- IC50 ([3]; Mutant 74 RT, 5 cases, 0.5 mM dNTPs, read-out: Minimum (IC50)): 11.1 µM
- IC50 ([3]; Mutant 74 RT, mean of 5 cases, 0.5 mM dNTPs, wild-type vs mutant p<0.005, read-out: Mean (IC50)): 16.9 µM
- IC50 [4]: 79.3 µM
- IC50 (wild-type RT; 10 cases, 0.5 mM dNTPs, read-out: Maximum (IC50)): 8.7 µM
- IC50 (wild-type RT; 10 cases, 0.5 mM dNTPs, read-out: Minimum (IC50)): 3.1 µM
- IC50 (wild-type RT; mean of 10 cases, 0.5 mM dNTPs, wild-type vs mutant p<0.005, read-out: Mean (IC50)): 6.79 µM
- IC50 (wild-type RT; single determinations, read-out: IC50 (multiple determinations)): 8.6 µM and 6.7 µM and 7.8 µM and 4.9 µM and 5.7 µM
